Assay results reported in ChEMBL document CHEMBL3734692, “Design and synthesis of 2-oxindole based multi-targeted inhibitors of PDK1/Akt signaling pathway for the treatment of glioblastoma multiforme” (Eur J Med Chem, 2015).
Calls of active or inactive are those of the source. No cut-off for these calls is given here.

How the values were obtained:
[1] = molecular target: Casein kinase I isoform alpha (Homo sapiens) (UniProt P48729); assay: Inhibition of CK1alpha1 (unknown origin) at 1 uM by selectscreen kinase profiling assay in presence of ATP
[2] = molecular target: Casein kinase I isoform gamma-1 (Homo sapiens) (UniProt Q9HCP0); assay: Inhibition of CK1gamma1 (unknown origin) at 1 uM by selectscreen kinase profiling assay in presence of ATP
[3] = molecular target: G protein-coupled receptor kinase 5 (Homo sapiens) (UniProt P34947); assay: Inhibition of GRK5 (unknown origin) at 1 uM by selectscreen kinase profiling assay in presence of ATP
[4] = molecular target: Inhibitor of nuclear factor kappa-B kinase subunit beta (Homo sapiens) (UniProt O14920); assay: Inhibition of IKKbeta (unknown origin) at 1 uM by selectscreen kinase profiling assay in presence of ATP
[5] = molecular target: Dual specificity mitogen-activated protein kinase kinase 1 (Homo sapiens) (UniProt Q02750); assay: Inhibition of MEK1 (unknown origin) at 1 uM by selectscreen kinase profiling assay in presence of ATP
[6] = molecular target: Mitogen-activated protein kinase 3 (Homo sapiens) (UniProt P27361); assay: Inhibition of ERK1 (unknown origin) at 1 uM by selectscreen kinase profiling assay in presence of ATP
[7] = molecular target: Mitogen-activated protein kinase 9 (Homo sapiens) (UniProt P45984); assay: Inhibition of JNK2 (unknown origin) at 1 uM by selectscreen kinase profiling assay in presence of ATP
[8] = molecular target: MAP kinase-activated protein kinase 2 (Homo sapiens) (UniProt P49137); assay: Inhibition of MAPKAPK2 (unknown origin) at 1 uM by selectscreen kinase profiling assay in presence of ATP
[9] = molecular target: cAMP-dependent protein kinase catalytic subunit alpha (Homo sapiens) (UniProt P17612); assay: Inhibition of PRKACA (unknown origin) at 1 uM by selectscreen kinase profiling assay in presence of ATP
[10] = molecular target: Protein kinase C zeta type (Homo sapiens) (UniProt Q05513); assay: Inhibition of PKCzeta (unknown origin) at 1 uM by selectscreen kinase profiling assay in presence of ATP
[11] = molecular target: Ribosomal protein S6 kinase alpha-1 (Homo sapiens) (UniProt Q15418); assay: Inhibition of RSK1 (unknown origin) at 1 uM by selectscreen kinase profiling assay in presence of ATP
[12] = molecular target: Proto-oncogene tyrosine-protein kinase Src (Homo sapiens) (UniProt P12931); assay: Inhibition of SRC (unknown origin) at 1 uM by selectscreen kinase profiling assay in presence of ATP
[13] = molecular target: PI3-kinase p110-alpha/p85-alpha (Homo sapiens) (UniProt P27986+P42336); assay: Inhibition of PIK3CA/PIK3R1 (unknown origin) at 1 uM by selectscreen kinase profiling assay in presence of ATP; format: protein-complex assay
[14] = molecular target: AMP-activated protein kinase, AMPK (Homo sapiens) (UniProt P54646+O43741+P54619+Q9UGJ0+Q9Y478+Q13131+Q9UGI9); assay: Inhibition of AMPK A1/B1/G1 (unknown origin) at 1 uM by selectscreen kinase profiling assay in presence of ATP; format: protein-complex assay
[15] = molecular target: Glycogen synthase kinase-3 alpha (Homo sapiens, UniProt P49840); assay: Inhibition of GSK3alpha (unknown origin) in presence of 10 uM ATP incubated for 1 hr by Z'Lyte assay
[16] = molecular target: T1, 3-phosphoinositide-dependent protein kinase 1 (Homo sapiens, UniProt O15530); assay: Inhibition of PDK1 (unknown origin) in presence of 25 uM ATP incubated for 1 hr by Z'Lyte assay
T1 sequence (O15530 whole entry): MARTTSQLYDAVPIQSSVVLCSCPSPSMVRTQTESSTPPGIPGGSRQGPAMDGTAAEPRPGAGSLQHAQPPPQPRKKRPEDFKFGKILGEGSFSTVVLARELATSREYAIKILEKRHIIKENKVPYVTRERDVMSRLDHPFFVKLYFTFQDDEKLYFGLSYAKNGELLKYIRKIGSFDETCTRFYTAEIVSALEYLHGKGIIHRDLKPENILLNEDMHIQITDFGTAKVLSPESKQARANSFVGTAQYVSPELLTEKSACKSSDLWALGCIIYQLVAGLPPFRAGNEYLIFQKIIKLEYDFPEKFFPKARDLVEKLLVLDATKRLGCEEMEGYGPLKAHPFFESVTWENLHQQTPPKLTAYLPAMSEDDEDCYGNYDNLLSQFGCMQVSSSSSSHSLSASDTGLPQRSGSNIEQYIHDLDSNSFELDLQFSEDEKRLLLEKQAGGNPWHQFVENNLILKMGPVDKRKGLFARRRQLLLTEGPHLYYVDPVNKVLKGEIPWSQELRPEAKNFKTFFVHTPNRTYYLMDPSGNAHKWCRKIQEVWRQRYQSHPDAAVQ

[17] = Induction of apoptosis in human GSC derived from ANGM-CSS cells assessed as late apoptotic cells at 1 uM after 7 days by annexin V-FITC/7-AAD dual staining based cell analysis (reference value: 2.51%); format: functional
[18] = Induction of apoptosis in human GSC derived from ANGM-CSS cells assessed as early apoptotic cells at 1 uM after 7 days by annexin V-FITC/7-AAD dual staining based cell analysis (reference value: 3.29%); format: functional
[19] = Cell cycle arrest in human GSC derived from ANGM-CSS cells assessed as accumulation at G0/G1 phase at 1 uM after 7 days by based fluorescent reagent based cell analysis (reference value: 71.4%); format: functional
[20] = Cell cycle arrest in human GSC derived from ANGM-CSS cells assessed as accumulation at G2/M phase at 1 uM after 7 days by based fluorescent reagent based cell analysis (reference value: 23.5%); format: functional
ANGM-CSS [21] = assay: Induction of human GSC differentiation derived from ANGM-CSS cells assessed as down regulation of CD133 mRNA expression at 1 uM after 7 days by RT-PCR analysis; format: functional, cell-based
ANGM-CSS [22] = assay: Induction of human GSC differentiation derived from ANGM-CSS cells assessed as down regulation of nestin mRNA expression at 1 uM after 7 days by RT-PCR analysis; format: functional, cell-based
ANGM-CSS [23] = assay: Induction of human GSC differentiation derived from ANGM-CSS cells assessed as up regulation of olig mRNA expression at 1 uM after 7 days by RT-PCR analysis; format: functional, cell-based
[24] = Antiproliferative activity against human ANGM-CSS cells assessed as inhibition of cell growth after 120 hrs by WST1 assay; format: functional
[25] = Antiproliferative activity against human U118MG cells assessed as inhibition of cell growth after 120 hrs by WST1 assay; format: functional; details: U-118-MG
[26] = Induction of apoptosis in human ANGM-CSS cells assessed as live cells at 1 uM after 7 days by annexin V-FITC/7-AAD dual staining based cell analysis (reference value: 92.21%); format: functional
[27] = molecular target: RAC-beta serine/threonine-protein kinase (Homo sapiens) (UniProt P31751); assay: Inhibition of AKT2 (unknown origin) at 1 uM by selectscreen kinase profiling assay in presence of ATP
Sequence of RAC-beta serine/threonine-protein kinase (Homo sapiens) (P31751 whole entry, looked up): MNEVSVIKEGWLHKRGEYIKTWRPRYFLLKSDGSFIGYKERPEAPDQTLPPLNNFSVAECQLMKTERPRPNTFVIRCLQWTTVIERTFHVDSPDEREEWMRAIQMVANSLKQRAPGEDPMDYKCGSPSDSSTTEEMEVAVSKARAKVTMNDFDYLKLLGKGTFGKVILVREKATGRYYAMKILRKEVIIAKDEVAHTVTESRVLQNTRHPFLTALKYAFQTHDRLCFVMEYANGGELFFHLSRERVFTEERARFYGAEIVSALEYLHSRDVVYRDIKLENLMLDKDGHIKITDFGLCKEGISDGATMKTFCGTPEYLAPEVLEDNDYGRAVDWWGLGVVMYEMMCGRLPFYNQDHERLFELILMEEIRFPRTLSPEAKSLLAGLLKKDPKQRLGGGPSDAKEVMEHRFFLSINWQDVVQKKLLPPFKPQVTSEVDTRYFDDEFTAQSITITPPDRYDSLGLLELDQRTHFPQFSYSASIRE

Sequence of Dual specificity mitogen-activated protein kinase kinase 1 (Homo sapiens) (Q02750 whole entry): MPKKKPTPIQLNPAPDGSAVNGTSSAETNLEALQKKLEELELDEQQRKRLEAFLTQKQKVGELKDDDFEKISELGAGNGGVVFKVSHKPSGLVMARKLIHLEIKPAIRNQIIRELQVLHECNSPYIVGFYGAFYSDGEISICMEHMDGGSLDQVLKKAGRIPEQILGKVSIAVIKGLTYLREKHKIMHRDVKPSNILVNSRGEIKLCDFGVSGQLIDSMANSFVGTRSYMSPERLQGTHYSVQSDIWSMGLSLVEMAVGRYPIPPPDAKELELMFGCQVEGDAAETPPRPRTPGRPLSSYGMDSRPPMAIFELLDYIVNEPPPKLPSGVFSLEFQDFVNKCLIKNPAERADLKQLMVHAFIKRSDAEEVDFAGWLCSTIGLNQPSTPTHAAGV
Sequence of Glycogen synthase kinase-3 alpha (P49840 whole entry): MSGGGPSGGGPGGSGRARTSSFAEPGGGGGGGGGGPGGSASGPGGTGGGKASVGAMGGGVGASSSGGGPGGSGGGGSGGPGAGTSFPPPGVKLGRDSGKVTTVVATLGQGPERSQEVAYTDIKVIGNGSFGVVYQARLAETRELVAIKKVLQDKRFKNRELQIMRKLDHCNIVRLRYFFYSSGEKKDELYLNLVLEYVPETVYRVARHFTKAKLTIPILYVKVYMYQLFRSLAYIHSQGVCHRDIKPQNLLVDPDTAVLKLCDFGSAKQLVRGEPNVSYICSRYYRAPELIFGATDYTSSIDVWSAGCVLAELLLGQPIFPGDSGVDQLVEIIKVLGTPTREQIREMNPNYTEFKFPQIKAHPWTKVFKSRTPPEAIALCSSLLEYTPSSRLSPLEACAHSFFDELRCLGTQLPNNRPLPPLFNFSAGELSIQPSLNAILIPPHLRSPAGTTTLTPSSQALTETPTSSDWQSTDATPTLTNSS
Sequence of Mitogen-activated protein kinase 9 (Homo sapiens) (P45984 whole entry, looked up): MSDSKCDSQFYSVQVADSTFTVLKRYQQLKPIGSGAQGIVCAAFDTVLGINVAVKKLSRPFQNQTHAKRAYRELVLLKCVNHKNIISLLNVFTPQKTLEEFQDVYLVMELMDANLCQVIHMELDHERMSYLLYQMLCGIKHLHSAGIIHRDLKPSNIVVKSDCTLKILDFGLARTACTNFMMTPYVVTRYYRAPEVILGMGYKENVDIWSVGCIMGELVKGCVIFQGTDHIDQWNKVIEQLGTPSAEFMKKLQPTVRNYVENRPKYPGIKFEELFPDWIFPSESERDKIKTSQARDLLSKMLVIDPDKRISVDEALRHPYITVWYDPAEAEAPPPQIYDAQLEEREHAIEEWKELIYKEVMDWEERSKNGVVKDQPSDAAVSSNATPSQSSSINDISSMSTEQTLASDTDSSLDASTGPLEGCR
Sequence of Casein kinase I isoform alpha (Homo sapiens) (P48729 2-337 limits assumed): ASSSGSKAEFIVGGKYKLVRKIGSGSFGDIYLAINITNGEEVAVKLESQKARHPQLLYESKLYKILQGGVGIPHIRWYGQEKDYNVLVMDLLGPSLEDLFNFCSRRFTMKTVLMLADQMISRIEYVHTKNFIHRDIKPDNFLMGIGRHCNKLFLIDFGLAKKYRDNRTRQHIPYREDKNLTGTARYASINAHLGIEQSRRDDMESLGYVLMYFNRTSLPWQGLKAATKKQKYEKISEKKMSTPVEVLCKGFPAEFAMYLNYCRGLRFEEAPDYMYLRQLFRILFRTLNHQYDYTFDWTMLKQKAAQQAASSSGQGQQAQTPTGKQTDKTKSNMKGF
Sequence of Inhibitor of nuclear factor kappa-B kinase subunit beta (Homo sapiens) (O14920 whole entry): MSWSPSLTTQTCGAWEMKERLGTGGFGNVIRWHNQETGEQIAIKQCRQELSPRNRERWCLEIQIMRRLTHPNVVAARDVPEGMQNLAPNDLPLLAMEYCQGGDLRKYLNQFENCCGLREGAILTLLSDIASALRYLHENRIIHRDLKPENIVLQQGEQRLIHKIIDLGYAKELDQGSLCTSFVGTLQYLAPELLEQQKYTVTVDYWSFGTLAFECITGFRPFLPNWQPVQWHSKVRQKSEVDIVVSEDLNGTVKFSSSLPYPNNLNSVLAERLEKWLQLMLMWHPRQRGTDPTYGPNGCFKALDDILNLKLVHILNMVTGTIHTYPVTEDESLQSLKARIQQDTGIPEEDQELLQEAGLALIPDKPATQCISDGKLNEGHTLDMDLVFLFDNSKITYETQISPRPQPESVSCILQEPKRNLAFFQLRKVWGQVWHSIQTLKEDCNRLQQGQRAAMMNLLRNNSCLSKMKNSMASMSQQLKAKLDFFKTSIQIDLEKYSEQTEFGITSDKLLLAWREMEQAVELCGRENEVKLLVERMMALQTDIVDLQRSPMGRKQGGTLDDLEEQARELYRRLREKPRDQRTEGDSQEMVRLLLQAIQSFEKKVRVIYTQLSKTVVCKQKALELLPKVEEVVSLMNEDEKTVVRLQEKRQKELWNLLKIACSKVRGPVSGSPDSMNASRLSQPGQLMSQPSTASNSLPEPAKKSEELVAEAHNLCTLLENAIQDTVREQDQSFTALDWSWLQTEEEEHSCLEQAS
Sequence of G protein-coupled receptor kinase 5 (Homo sapiens) (P34947 whole entry, looked up): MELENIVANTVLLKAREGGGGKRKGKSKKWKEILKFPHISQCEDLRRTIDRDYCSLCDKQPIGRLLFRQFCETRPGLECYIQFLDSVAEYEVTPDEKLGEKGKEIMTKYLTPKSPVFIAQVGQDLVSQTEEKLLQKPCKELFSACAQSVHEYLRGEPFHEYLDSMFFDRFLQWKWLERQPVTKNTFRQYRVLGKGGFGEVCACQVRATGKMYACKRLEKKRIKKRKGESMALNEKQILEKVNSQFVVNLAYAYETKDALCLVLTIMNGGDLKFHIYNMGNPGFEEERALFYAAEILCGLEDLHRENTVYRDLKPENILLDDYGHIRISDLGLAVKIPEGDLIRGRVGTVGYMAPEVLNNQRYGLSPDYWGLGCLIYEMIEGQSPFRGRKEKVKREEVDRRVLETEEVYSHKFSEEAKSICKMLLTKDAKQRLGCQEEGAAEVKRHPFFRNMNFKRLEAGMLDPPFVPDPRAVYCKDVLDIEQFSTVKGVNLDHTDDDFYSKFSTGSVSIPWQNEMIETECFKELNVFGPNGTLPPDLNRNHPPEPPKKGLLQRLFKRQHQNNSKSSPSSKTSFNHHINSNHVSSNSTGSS
Sequence of Mitogen-activated protein kinase 3 (Homo sapiens) (P27361 whole entry): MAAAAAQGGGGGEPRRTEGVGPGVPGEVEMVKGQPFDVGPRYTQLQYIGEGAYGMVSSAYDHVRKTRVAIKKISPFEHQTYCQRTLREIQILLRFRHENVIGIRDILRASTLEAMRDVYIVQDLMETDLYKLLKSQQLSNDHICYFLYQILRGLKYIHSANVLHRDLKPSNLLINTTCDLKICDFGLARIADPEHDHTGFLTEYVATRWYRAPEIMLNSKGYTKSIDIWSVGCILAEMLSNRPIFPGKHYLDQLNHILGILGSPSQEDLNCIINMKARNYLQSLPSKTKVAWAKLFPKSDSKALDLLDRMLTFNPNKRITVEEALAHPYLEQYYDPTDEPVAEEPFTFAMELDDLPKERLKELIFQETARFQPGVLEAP
Sequence of MAP kinase-activated protein kinase 2 (Homo sapiens) (P49137 whole entry, looked up): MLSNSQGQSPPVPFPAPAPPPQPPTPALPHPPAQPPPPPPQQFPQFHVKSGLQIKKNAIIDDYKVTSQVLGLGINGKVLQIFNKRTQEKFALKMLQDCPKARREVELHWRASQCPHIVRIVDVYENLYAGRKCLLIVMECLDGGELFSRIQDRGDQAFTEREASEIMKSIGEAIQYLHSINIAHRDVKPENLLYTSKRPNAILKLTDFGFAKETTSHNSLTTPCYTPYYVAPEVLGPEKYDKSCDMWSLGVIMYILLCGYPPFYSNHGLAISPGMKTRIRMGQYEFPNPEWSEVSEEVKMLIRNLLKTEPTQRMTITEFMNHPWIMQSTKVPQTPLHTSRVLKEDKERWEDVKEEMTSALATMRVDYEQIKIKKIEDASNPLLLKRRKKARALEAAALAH
Sequence of Casein kinase I isoform gamma-1 (Homo sapiens) (Q9HCP0 whole entry, looked up, canonical isoform): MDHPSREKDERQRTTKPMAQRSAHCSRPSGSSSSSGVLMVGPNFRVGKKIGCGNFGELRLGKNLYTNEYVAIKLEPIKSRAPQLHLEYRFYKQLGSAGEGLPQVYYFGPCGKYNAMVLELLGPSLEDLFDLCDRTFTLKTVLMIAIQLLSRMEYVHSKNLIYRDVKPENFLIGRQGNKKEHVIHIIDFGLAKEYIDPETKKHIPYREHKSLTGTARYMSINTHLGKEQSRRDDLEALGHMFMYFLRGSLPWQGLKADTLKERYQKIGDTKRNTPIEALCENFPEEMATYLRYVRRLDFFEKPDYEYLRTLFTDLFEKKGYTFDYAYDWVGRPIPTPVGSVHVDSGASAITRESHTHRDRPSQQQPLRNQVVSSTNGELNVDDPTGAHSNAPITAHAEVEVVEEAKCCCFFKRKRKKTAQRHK

COc1cc2c(cc1OC)CN(CC(=O)Nc1ccc3c(c1)/C(=C/c1cnc[nH]1)C(=O)N3)CC2 showed an inhibition [1] of 4%, an inhibition [2] of -4% and an inhibition [3] of 10%. It also gave an inhibition [4] of 6%, an inhibition [5] of 37% and an inhibition [6] of 37%. The inhibition [7] was 5%, the inhibition [8] was -2% and the inhibition [9] was 3%. The inhibition [10] was 0%, the inhibition [11] was 44% and the inhibition [12] was 27%. For the same compound, the inhibition [13] was -6%, the inhibition [14] was 42% and the IC50 [15] was 0.884 µM. It also gave an IC50 [16] of 0.998 µM, an Activity [17] of 4.93% and an Activity [18] of 12.65%. The Activity [19] was 69%, the Activity [20] was 27% and the Activity (ANGM-CSS [21]) was “Active”. For the same compound, the Activity (ANGM-CSS [22]) was “Active”, the Activity (ANGM-CSS [23]) was “Active” and the GI50 [24] was 12.9 µM. The GI50 [25] was 16.7 µM, the Activity [26] was 79.63% and the inhibition [27] was 2%.
